Results on 22 molecules are retold here after US20260217672A1, “BENZAMIDE COMPOUNDS FOR TREATMENT OF BACTERIAL INFECTIONS” (Hoffmann-La Roche Inc., priority 2022, published 2026).

Values after ≈ are worked out from the molar mass of the structure shown.

Assay [1] relates to Escherichia coli ATCC 25922. Kind of assay: Minimal Inhibitory Concentration (MIC) broth dilution assay. It counts as cell-based. The conditions noted are these: ATCC25922, 20 h, read-out: MIC Escherichia coli ATCC 25922. The method, then: (§1) The antibacterial activity of the compounds of the present invention was evaluated against the commonly used quality control strain Escherichia coli ATCC 25922 and the rifampin-resistant mutant strain Klebsiella pneumonia ATCC 43816. Both were originally derived from human clinical samples and are available from ATCC (American Type Culture Collection). The in vitro potency of compounds to inhibit Escherichia coli (ATCC 25922) and Klebsiella pneumonia (ATCC 43816) growth was assessed by the MIC (Minimal Inhibitory Concentration) broth dilution method. Specifically compound dilutions were prepared from 10 mM DMSO stock solutions as follows: i) serial 2-fold dilution in 20 μL DMSO were prepared in a master plate (Greiner, Cat No: 651201), ii) 180 μL sterile distilled water was added to each aliquot and iii) 10 μL diluted compounds were transferred into a new assay plate (Costar, 3599).
(§2) Vials of each test microorganisms were maintained frozen in the vapor phase of a liquid nitrogen freezer. Single-use frozen vials of the two strains Escherichia coli ATCC 25922 (KWIKSTIK, 0335K) and Klebsiella pneumonia ATCC 43816, with predetermined CFU/mL, were taken out from the freezer, thawed at room temperature, and diluted in Cation-Adjusted Mueller Hinton Broth (CAMHB) to achieve a final inoculum of 5×10^5 CFU/mL. 90 μL bacteria containing broth was dispensed to the assay plate containing the pre-dispensed compound dilutions and mixed by pipetting 5 times.
(§3) Then the assay plates were incubated for 20 hours at 35° C. in ambient air. Following incubation, the MIC ([…]), the lowest concentration of drug that inhibits visible growth of the microorganism was read with the help of a magnification mirror and recorded.

For assay [2], the system named is Klebsiella pneumonia ATCC 43816. The description is as above. It counts as cell-based. The conditions noted are these: Klebsiella pneumoniae, ATCC43816, 20 h, read-out: MIC Klebsiella pneumoniae ATCC43816. The method, then: as §1, §2, §3

With `O=C(c1cnn(C2CNC2)c1)N1CCc2cc(S(=O)(=O)N3CCN(c4cc(C(F)(F)F)cc(Cl)n4)CC3)ccc21` [Example 036, [1-(Azetidin-3-yl)pyrazol-4-yl]-[5-[4-[6-chloro-4-(trifluoromethyl)-2-pyridyl]piperazin-1-yl]sulfonylindolin-1-yl]methanone], the MIC (usually the lowest concentration that inhibits growth of the organism) is 3.7 µg/mL (≈ 6.21 µM) in assay [1] and 7.4 µg/mL (≈ 12.4 µM) in assay [2].

Regarding `O=C(O)c1ccccc1C(=O)N1CCc2cc(S(=O)(=O)N3CCN(c4cc(C(F)(F)F)cc(Cl)n4)CC3)ccc21` [Example 042, 2-[5-[4-[6-Chloro-4-(trifluoromethyl)-2-pyridyl]piperazin-1-yl]sulfonylindoline-1-carbonyl]benzoic acid], the MIC is 0.99 µg/mL (≈ 1.66 µM) in assay [1] and 2 µg/mL (≈ 3.36 µM) in assay [2].

For `N#Cc1cc(N2CCN(S(=O)(=O)c3ccc(NC(=O)c4ccc(CCNCCCN)cc4)cc3)CC2)nc(C(F)(F)F)c1` [Example 015, 4-[2-(3-Aminopropylamino)ethyl]-N-[4-[4-[4-cyano-6-(trifluoromethyl)-2-pyridyl]piperazin-1-yl]sulfonylphenyl]benzamide], the MIC was determined as 1.9 µg/mL (≈ 3.09 µM) in assay [1] and 3.8 µg/mL (≈ 6.17 µM) in assay [2].

As to `NC1CC(CNCc2cccc(C(=O)Nc3ccc(S(=O)(=O)N4CCN(c5cc(C(F)(F)F)cc(Cl)n5)CC4)cc3)c2)C1` (stereo not shown) [Example 077, 3-[[(3-Aminocyclobutyl)methylamino]methyl]-N-[4-[4-[6-chloro-4-(trifluoromethyl)-2-pyridyl]piperazin-1-yl]sulfonylphenyl]benzamide], the MIC in assay [1] was 0.68 µg/mL (≈ 1.07 µM); in assay [2], 2.7 µg/mL (≈ 4.24 µM).

With `COc1ccc(CN2CCC3CNCC32)cc1C(=O)Nc1ccc(S(=O)(=O)N2CCN(c3cc(C(F)(F)F)cc(Cl)n3)CC2)cc1` (stereo not shown) [Example 087, 5-(3,3a,4,5,6,6a-Hexahydro-2H-pyrrolo[3,4-b]pyrrol-1-ylmethyl)-N-[4-[4-[6-chloro-4-(trifluoromethyl)-2-pyridyl]piperazin-1-yl]sulfonylphenyl]-2-methoxy-benzamide], the minimum inhibitory concentration (MIC) in assay [1] worked out at 1.2 µg/mL (≈ 1.77 µM); in assay [2] it was 2.5 µg/mL (≈ 3.68 µM).

As to `Cn1cc2c(n1)CN(C(=O)Nc1ccc(S(=O)(=O)N3CCN(c4cc(C(F)(F)F)cc(Cl)n4)CC3)cc1)C2` [Example 032, N-[4-[4-[6-chloro-4-(trifluoromethyl)-2-pyridyl]piperazin-1-yl]sulfonylphenyl]-2-methyl-4,6-dihydropyrrolo[3,4-c]pyrazole-5-carboxamide], the MIC in assay [1] and in assay [2] was 7.1 µg/mL (≈ 12.5 µM) in each case.

For `O=C(Nc1ccc(S(=O)(=O)N2CCN(c3cc(C(F)(F)F)cc(Cl)n3)CC2)cc1)c1cccc(CNCC2CCNCC2)c1` [Example 076, N-[4-[4-[6-chloro-4-(trifluoromethyl)-2-pyridyl]piperazin-1-yl]sulfonylphenyl]-3-[(4-piperidylmethylamino)methyl]benzamide], the figures for the minimum inhibitory concentration (MIC) in assay [1] and in assay [2] were 0.69 µg/mL (≈ 1.06 µM) and 2.7 µg/mL (≈ 4.15 µM), respectively.

Consider `NCCc1cccc(C(=O)Nc2ccc(S(=O)(=O)N3CCN(c4cc(C(F)(F)F)cc(Cl)n4)CC3)cc2)c1` [Example 053, 3-(2-Aminoethyl)-N-[4-[4-[6-chloro-4-(trifluoromethyl)-2-pyridyl]piperazin-1-yl]sulfonylphenyl]benzamide], for which the MIC in assay [1] was 0.44 µg/mL (≈ 0.775 µM); in assay [2] it was 0.89 µg/mL (≈ 1.57 µM).

With `NCC12CC1CN(Cc1cccc(C(=O)Nc3ccc(S(=O)(=O)N4CCN(c5cc(C(F)(F)F)cc(Cl)n5)CC4)cc3)c1)C2` (stereo not shown) [Example 082, 3-[[1-(Aminomethyl)-3-azabicyclo[3.1.0]hexan-3-yl]methyl]-N-[4-[4-[6-chloro-4-(trifluoromethyl)-2-pyridyl]piperazin-1-yl]sulfonylphenyl]benzamide], the MIC in assay [1] came out at 0.69 µg/mL (≈ 1.06 µM); in assay [2], 1.4 µg/mL (≈ 2.16 µM).

Regarding `Cc1cnc(N2CCN(S(=O)(=O)c3ccc(NC(=O)c4ccc(CCNCCCN)cc4)cc3)CC2)cc1C(F)(F)F` [Example 013, 4-[2-(3-Aminopropylamino)ethyl]-N-[4-[4-[5-methyl-4-(trifluoromethyl)-2-pyridyl]piperazin-1-yl]sulfonylphenyl]benzamide], the minimal inhibitory concentration (MIC) in assay [1] amounted to 0.94 µg/mL (≈ 1.55 µM).

With `CN1CC2CCN(CCc3ccc(C(=O)Nc4ccc(S(=O)(=O)N5CCN(c6cc(C(F)(F)F)cc(Cl)n6)CC5)cc4)cc3)C2C1` (stereo not shown) [Example 071, N-[4-[4-[6-chloro-4-(trifluoromethyl)-2-pyridyl]piperazin-1-yl]sulfonylphenyl]-4-[2-(5-methyl-2,3,3a,4,6,6a-hexahydropyrrolo[2,3-c]pyrrol-1-yl)ethyl]benzamide], the minimal inhibitory concentration (MIC) in assay [1] and in assay [2] was 4.2 µg/mL (≈ 6.2 µM) throughout.

For `NCCOc1cccc(C(=O)Nc2ccc(S(=O)(=O)N3CCN(c4cc(C(F)(F)F)cc(Cl)n4)CC3)cc2)c1` [Example 048, 3-(2-Aminoethoxy)-N-[4-[4-[6-chloro-4-(trifluoromethyl)-2-pyridyl]piperazin-1-yl]sulfonylphenyl]benzamide], the MIC in assay [1] came out at 0.48 µg/mL (≈ 0.822 µM); in assay [2], 0.97 µg/mL (≈ 1.66 µM).

In the case of `O=C(Nc1ccc(S(=O)(=O)N2CCN(c3cc(C(F)(F)F)cc(Cl)n3)CC2)cc1)c1cccc(N2CC3CC2CN3)c1` (stereo not shown) [Example 047, N-[4-[4-[6-chloro-4-(trifluoromethyl)-2-pyridyl]piperazin-1-yl]sulfonylphenyl]-3-(2,5-diazabicyclo[2.2.1]heptan-2-yl)benzamide], the MIC in assay [1] was 1.1 µg/mL (≈ 1.77 µM); in assay [2], 2.3 µg/mL (≈ 3.7 µM).

As for `NCCCNCc1cccc(C(=O)Nc2ccc(S(=O)(=O)N3CCN(c4cc(C(F)(F)F)cc(Cl)n4)CC3)cc2O)c1` [Example 031, 3-[(3-Aminopropylamino)methyl]-N-[4-[4-[6-chloro-4-(trifluoromethyl)-2-pyridyl]piperazin-1-yl]sulfonyl-2-hydroxy-phenyl]benzamide], the MIC in assay [1] and in assay [2] was 3.9 µg/mL (≈ 6.22 µM) throughout.

Regarding `NCCCN1CCC(c2cccc(C(=O)Nc3ccc(S(=O)(=O)N4CCN(c5cc(C(F)(F)F)cc(Cl)n5)CC4)cc3)c2)C1` (stereo not shown) [Example 067, 3-[1-(3-Aminopropyl)pyrrolidin-3-yl]-N-[4-[4-[6-chloro-4-(trifluoromethyl)-2-pyridyl]piperazin-1-yl]sulfonylphenyl]benzamide], the figures for the minimal inhibitory concentration (MIC) in assay [1] and in assay [2] were 0.51 µg/mL (≈ 0.783 µM) and 1 µg/mL (≈ 1.54 µM), respectively.

Consider `O=C(Nc1ccc(S(=O)(=O)N2CCN(c3cc(C(F)(F)F)cc(Cl)n3)CC2)cc1)c1cccc(CNCCCN(CCO)CCO)c1` [Example 080, 3-[[3-[Bis(2-hydroxyethyl)amino]propylamino]methyl]-N-[4-[4-[6-chloro-4-(trifluoromethyl)-2-pyridyl]piperazin-1-yl]sulfonylphenyl]benzamide], for which the MIC was found to be 1.4 µg/mL (≈ 2 µM) in assay [1] and 2.9 µg/mL (≈ 4.15 µM) in assay [2].

Turning to `N#CN=S(=O)(c1ccc(NC(=O)c2cccc(CCNCCCN)c2)cc1)N1CCN(c2cc(C(F)(F)F)cc(Cl)n2)CC1` (stereo not drawn) [Example 025, 3-[2-(3-Aminopropylamino)ethyl]-N-[4-[S-[4-[6-chloro-4-(trifluoromethyl)-2-pyridyl]piperazin-1-yl]-N-cyano-sulfonimidoyl]phenyl]benzamide], the minimum inhibitory concentration (MIC) in assay [1] turned out to be 1.3 µg/mL (≈ 2 µM); in assay [2] it was 5.1 µg/mL (≈ 7.86 µM).

With `O=C(Nc1ccc(S(=O)(=O)N2CCN(c3cc(C(F)(F)F)cc(Cl)n3)CC2)cc1)c1cccc(N2CCNCC2)c1` [Example 054, N-[4-[4-[6-chloro-4-(trifluoromethyl)-2-pyridyl]piperazin-1-yl]sulfonylphenyl]-3-piperazin-1-yl-benzamide], the figures for the MIC in assay [1] and in assay [2] were 0.48 µg/mL (≈ 0.788 µM) and 0.95 µg/mL (≈ 1.56 µM), respectively.

Turning to `N#Cc1cc(C(F)(F)F)cc(N2CCN(S(=O)(=O)c3ccc(NC(=O)c4ccc(CCNCCCN)cc4)cc3)CC2)n1` [Example 016, 4-[2-(3-Aminopropylamino)ethyl]-N-[4-[4-[6-cyano-4-(trifluoromethyl)-2-pyridyl]piperazin-1-yl]sulfonylphenyl]benzamide], the MIC in assay [1] stood at 1.9 µg/mL (≈ 3.09 µM); in assay [2] it was 3.8 µg/mL (≈ 6.17 µM).

Turning to `O=C1CC(CNCc2cccc(C(=O)Nc3ccc(S(=O)(=O)N4CCN(c5cc(C(F)(F)F)cc(Cl)n5)CC4)cc3)c2)CN1` (stereo not shown) [Example 085, N-[4-[4-[6-chloro-4-(trifluoromethyl)-2-pyridyl]piperazin-1-yl]sulfonylphenyl]-3-[[(5-oxopyrrolidin-3-yl)methylamino]methyl]benzamide], in assay [1], the MIC was determined as 1.2 µg/mL (≈ 1.84 µM).

Turning to `NCCCNCc1ccc(C(=O)Nc2ccc(S(=O)(=O)N3CCN(c4cc(C(F)(F)F)c(C5CC5)cn4)CC3)cc2)cc1` [Example 008, 4-[(3-Aminopropylamino)methyl]-N-[4-[4-[5-cyclopropyl-4-(trifluoromethyl)-2-pyridyl]piperazin-1-yl]sulfonylphenyl]benzamide], in assay [2], the minimal inhibitory concentration (MIC) is 7.7 µg/mL (≈ 12.5 µM).

As for `CN(C)C(=O)CCNCc1cccc(C(=O)Nc2ccc(S(=O)(=O)N3CCN(c4cc(C(F)(F)F)cc(Cl)n4)CC3)cc2)c1` [Example 086, N-[4-[4-[6-chloro-4-(trifluoromethyl)-2-pyridyl]piperazin-1-yl]sulfonylphenyl]-3-[[[3-(dimethylamino)-3-oxo-propyl]amino]methyl]benzamide], the minimal inhibitory concentration (MIC) in assay [1] came to 2.4 µg/mL (≈ 3.67 µM).
